Where a SMILES comes first, the peptide text is derived from it. [ ]: non-standard residue; d: D form. The star is where a group is joined. X1 = CCCCCCCCCCCCCCCC(=O)OC[C@H](COP(=O)(O)OCCNC(=O)CCCc1ccc(N2C(=O)CC(*)C2=O)cc1)OC(=O)CCCCCCCCCCCCCCC; pS = N[C@@H](COP(=O)(O)O)C(=O)O
How the values were obtained:
AP2 core σ2V88D = AP2 core σ2V88D (UniProt P17427+P62743+P63010+P84092, V88D); assay type: binding; conditions: pH 8.7
AP2 core σ2L103S = AP2 core σ2L103S (UniProt P17427+P62743+P63010+P84092, L103S); assay type: binding; conditions: pH 8.7
Sequence of AP2 core σ2L103S (P62743 whole entry L103S): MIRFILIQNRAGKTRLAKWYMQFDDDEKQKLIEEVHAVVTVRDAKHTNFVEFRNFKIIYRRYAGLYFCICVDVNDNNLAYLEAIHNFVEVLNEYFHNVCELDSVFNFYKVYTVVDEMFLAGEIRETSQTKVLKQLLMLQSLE
Sequence of AP2 core σ2L103S (P84092 whole entry): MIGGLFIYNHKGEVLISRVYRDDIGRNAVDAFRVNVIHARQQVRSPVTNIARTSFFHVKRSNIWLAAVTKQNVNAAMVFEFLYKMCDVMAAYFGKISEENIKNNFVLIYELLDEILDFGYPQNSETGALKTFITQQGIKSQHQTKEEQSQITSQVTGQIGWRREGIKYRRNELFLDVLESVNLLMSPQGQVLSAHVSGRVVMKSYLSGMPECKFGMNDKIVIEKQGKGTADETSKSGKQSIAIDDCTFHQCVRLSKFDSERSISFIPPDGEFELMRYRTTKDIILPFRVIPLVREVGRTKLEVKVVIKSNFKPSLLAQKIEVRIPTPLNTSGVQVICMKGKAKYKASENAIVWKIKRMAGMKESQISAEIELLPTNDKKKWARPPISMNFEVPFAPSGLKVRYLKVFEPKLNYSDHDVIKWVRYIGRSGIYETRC
Sequence of AP2 core σ2L103S (P17427 1-621): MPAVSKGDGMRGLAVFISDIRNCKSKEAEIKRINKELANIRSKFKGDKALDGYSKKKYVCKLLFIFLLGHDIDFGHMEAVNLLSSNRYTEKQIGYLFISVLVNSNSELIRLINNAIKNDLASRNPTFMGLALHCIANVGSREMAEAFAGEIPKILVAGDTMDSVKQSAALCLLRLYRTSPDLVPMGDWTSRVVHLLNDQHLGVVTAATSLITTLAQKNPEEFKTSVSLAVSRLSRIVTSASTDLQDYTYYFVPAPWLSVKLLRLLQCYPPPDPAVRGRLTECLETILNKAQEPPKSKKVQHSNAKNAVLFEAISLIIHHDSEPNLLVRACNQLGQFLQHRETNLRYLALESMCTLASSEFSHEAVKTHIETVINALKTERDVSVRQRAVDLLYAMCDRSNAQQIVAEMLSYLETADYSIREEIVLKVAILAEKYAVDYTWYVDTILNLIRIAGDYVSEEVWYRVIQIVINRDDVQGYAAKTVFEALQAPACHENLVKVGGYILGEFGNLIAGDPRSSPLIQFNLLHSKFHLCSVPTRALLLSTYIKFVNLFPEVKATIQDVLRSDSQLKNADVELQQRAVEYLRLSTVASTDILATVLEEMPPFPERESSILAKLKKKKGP
Sequence of AP2 core σ2L103S (P63010 1-591): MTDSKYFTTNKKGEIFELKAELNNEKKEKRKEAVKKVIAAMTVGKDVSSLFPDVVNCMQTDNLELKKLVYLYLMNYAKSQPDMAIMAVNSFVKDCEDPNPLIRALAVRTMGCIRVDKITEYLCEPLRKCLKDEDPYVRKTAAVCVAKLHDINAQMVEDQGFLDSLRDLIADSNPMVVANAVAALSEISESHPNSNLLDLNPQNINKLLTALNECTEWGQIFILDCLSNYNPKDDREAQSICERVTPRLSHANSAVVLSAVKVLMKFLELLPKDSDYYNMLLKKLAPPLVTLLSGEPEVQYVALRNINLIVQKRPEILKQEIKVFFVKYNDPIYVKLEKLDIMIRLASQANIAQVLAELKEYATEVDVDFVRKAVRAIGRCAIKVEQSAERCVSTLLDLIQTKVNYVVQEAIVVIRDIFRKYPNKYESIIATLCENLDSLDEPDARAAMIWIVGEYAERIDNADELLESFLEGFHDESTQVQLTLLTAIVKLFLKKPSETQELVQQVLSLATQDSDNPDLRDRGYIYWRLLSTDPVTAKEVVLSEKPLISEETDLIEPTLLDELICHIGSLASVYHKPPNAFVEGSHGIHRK

Sequence of AP2 core σ2V88D (P62743 whole entry V88D): as the sequence (P62743 whole entry L103S) above, with V88D, S103L counted along it
Sequence of AP2 core σ2V88D (P63010 1-591, stated change not applied): as the sequence (P63010 1-591) above
Sequence of AP2 core σ2V88D (P84092 whole entry, stated change not applied): as the sequence (P84092 whole entry) above
Sequence of AP2 core σ2V88D (P17427 1-621): as the sequence (P17427 1-621) above

CCCCCCCCCCCCCCCC(=O)OC[C@H](COP(=O)(O)OCCNC(=O)CCCc1ccc(N2C(=O)CC(SC[C@H](N)C(=O)N[C@@H](Cc3c[nH]cn3)C(=O)N[C@@H](CCCNC(=N)N)C(=O)N[C@@H](CCCNC(=N)N)C(=O)N[C@@H](CCCNC(=N)N)C(=O)N[C@@H](CCC(N)=O)C(=O)N[C@@H](C)C(=O)N[C@@H](CCC(=O)O)C(=O)N[C@@H](CCCNC(=N)N)C(=O)N[C@@H](CCSC)C(=O)N[C@@H](COP(=O)(O)O)C(=O)N[C@@H](CCC(N)=O)C(=O)N[C@H](C(=O)N[C@@H](CCCCN)C(=O)N[C@@H](CCCNC(=N)N)C(=O)N[C@@H](CC(C)C)C(=O)N[C@@H](CC(C)C)C(=O)N[C@@H](CO)C(=O)N[C@@H](CCC(=O)O)C(=O)N[C@@H](CCCCN)C(=O)O)[C@@H](C)CC)C2=O)cc1)OC(=O)CCCCCCCCCCCCCCC (some centres unmarked) [phospho-CD4 Q-peptide] (H-C(X1)HRRRQAERM[pS]QIKRLLSEK-OH; N-terminus and C-terminus assumed)
KD (AP2 core σ2V88D): below detectable levels
KD (AP2 core σ2L103S): below detectable levels
